From patent US12091683B2, “Method for producing platelets, method for producing platelet product, and method for producing blood product” (MEGAKARYON CORPORATION, priority 2017, dated 2024)

Experiments:
[1] = test system: platelets produced from immortalized megakaryocyte cell lines (SeV2-MKCL); experiment: Bioactivity of platelets produced, MFIs of CD62p and PAC-1 by flow cytometer; type: cell-based, human
Experimental: The bioactivity of platelets obtained in Example 1(2) was measured using a flow cytometer. Specifically, 900 μL of diluent was added to a 1.5-mL microtube, and 100 μL of culture solution after platelet production was added and mixed. Then, 200 μL of obtained solution was poured into a FACS tube, stained by adding the labeled antibody shown below, and the MFIs of CD62p and PAC-1 in platelets were analyzed using the flow cytometer. The same analysis was also performed using the flow cytometer in NC, and then the increase percentage of the MFIs of CD62p and PAC-1 in the respective samples were calculated with reference to the MFIs of CD62p and PAC-1 in NC.
FIGS. 2A and 2B are graphs each showing the increase percentage of MFIs of CD62p and PAC-1. […] In addition, the expression levels of CD62p and PAC-1 were increased in a concentration-dependent manner.
The increase percentages of MFIs of CD62p and PAC-1 were calculated in the same manner as in Example 1(3) except that platelet was produced using a platelet production medium being added with cysteine at a predetermined concentration (1, 5, or 10 mmol/L) instead of glycine. The platelet production medium contains 0.6 to 0.8 mmol/L cysteine. Therefore, the concentration of the cysteine in the platelet production medium after being added with cysteine are about 2 to about 11 mmol/L. As a control, the increase percentage of MFIs of CD62p and PAC-1 was calculated in the same manner except that no cysteine was added.

[2] = test system: immortalized megakaryocyte cell line from human iPS cells (NIH5); conditions: 4.0×10^5 (×4) or 6.0×10^5 cells/mL (×6), 5 days, glycine added, compared with control in high-density culture, FIG. 6A
Experimental: (§1) Immortalized megakaryocyte cell lines were induced in the same manner as in Examples 1(1-1) to (1-6) except that human iPS cells (NIH5 and NIH8) were used instead of the human iPS cells (TKDN SeV2). As to the obtained immortalized megakaryocyte cell line, the number of platelets was counted and the platelet concentration was calculated in the same manner as in Example 1(2) except that the cell dissemination density was set to 4.0×10^5 cells/mL (×4) or 6.0×10^5 cells/mL (×6) and the culture was performed for 5 days. As a control, the platelet concentration was calculated in the same manner except that the cell dissemination density was set to 1.0×10^5 cells/mL (×1), 4.0×10^5 cells/mL (×4), or 6.0×10^5 cells/mL (×6), and the glycine-non-added platelet production medium was used.
(§2) FIGS. 6A and 6B are graphs each showing the platelet concentration. […] In FIGS. 6A and 6B, the horizontal axis indicates the condition of cell dissemination density and glycine concentration, and the vertical axis indicates the platelet concentration.

[3] = test system: immortalized megakaryocyte cell line from human iPS cells (NIH8); conditions: 4.0×10^5 (×4) or 6.0×10^5 cells/mL (×6), 5 days, glycine added, compared with control in high-density culture, FIG. 6B
Experimental: as §1, §2

[4] = test system: immortalized megakaryocyte cell lines (SeV2-MKCL)
Text: The forced expression was canceled by performing culturing in a medium not containing DOX. Specifically, the immortalized megakaryocyte cell lines (SeV2-MKCL) obtained using the method (1) were washed twice with PBS (−), and suspended in a following platelet producing medium. The cell dissemination density was set to 4.0×10^5 cells/mL (×4).
The platelet producing medium was obtained by adding the components listed below to a basal medium IMDM (concentration means final concentration).

[5] = test system: platelets produced from immortalized megakaryocyte cell lines (SeV2-MKCL); conditions: 10 mmol/L glycine and 20 U/mL heparin added; dissemination density ×1, ×2, ×3, ×4, ×8; compared with controls; FIG. 3
Experimental: In addition, the deterioration state of platelets obtained was evaluated based on the positive rate of Annexin V. Specifically, in measurement of the Annexin V positive rate in platelets, 100 μL of the culture solution after platelet production was poured into a FACS tube, and the solution was stained by adding the following labeled antibody and protein, diluted to 5 times with an Annexin V binding buffer (BD Biosciences) immediately before flow cytometer analysis, and then subjected to analysis.
1.0 μL anti-CD41a antibody APC label (Bio Legend 303710)
1.0 μL anti-CD42b antibody PE label (Bio Legend 303906)
5 μL Annexin V FITC label (BD Biosciences 556419)

[6] = test system: immortalized megakaryocyte cell line from iPS cells induced from SeV2-MKCL; conditions: high-density culture (×4), compared with control in high-density culture
Text: iPS cells were induced by introducing c-MYC, OCT3/4, SOX2, and KLF4 into immortalized megakaryocyte cell line (SeV2-MKCL) obtained in Example 1(1-6) by the Sendai virus vector according to the method described in WO 2010/134526. Next, immortalized megakaryocyte cell lines were induced in the same manner as in Examples 1(1-1) to (1-6) except that the induced iPS cells were used instead of the human iPS cells (TKDN SeV2). Further, as to the obtained immortalized megakaryocyte cell line, the number of platelets was counted and the platelet concentration was calculated in the same manner as in Example 1(2). Then, the P/M ratio was calculated based on the megakaryocyte cell density (dissemination density) at the start of production of platelets and the platelet concentration.

[7] = high-density culture (×4), added glycine 5, 10, 20, 40 mmol/L, compared to control without glycine, FIGS. 2A, 2B
[8] = high-density culture, added cysteine 1, 5 or 10 mmol/L, compared to control (NC) without cysteine, FIG. 4

With NCC(=O)O [glycine] the “expression level of CD62p (increase percentage of MFI)” value [1, 7] was “increased at all glycine concentrations”, the “expression level of PAC-1 (increase percentage of MFI)” value [1, 7] was “increased at all glycine concentrations” and the platelet concentration [2] was “increased at any dissemination density”. For the same compound, the platelet concentration [3] was “increased at any dissemination density”, the number of platelets ([4]; 4.0×10^5 cells/mL (×4), added glycine 1, 5, 10, 20 or 40 mmol/L, 6 days, compared with high-density culture using glycine-non-added medium, FIGS. 1A, 1B) was “increased at all concentrations” and the “ability of megakaryocyte to produce platelets” value ([4]; glycine concentration at the start of production of platelets 11 to 31 mmol/L or 11 to 21 mmol/L, high-density culture (×4)) was “further improved”. For the same compound, the “deterioration of platelet (percentage of Annexin V-positive cells)” value [5] was “suppressed”, the number of platelets [5] was “increased” and the “ability of megakaryocyte to produce platelets (P/M ratio)” value ([6]; any glycine concentration, FIG. 5A) was “improved”. The platelet concentration ([6]; FIG. 5B) was “increased at any glycine concentration”.
In the case of N[C@@H](CS)C(=O)O [cysteine], the “expression level of CD62p (increase percentage of MFI)” value [1, 8] is reported as “increased at all cysteine concentrations” and the “expression level of PAC-1 (increase percentage of MFI)” value [1, 8] is reported as “increased at all cysteine concentrations”.
